Counter-ions that a name gives are not always drawn.
Assay: collision cross section in nitrogen (drift tube, single-field); higher = larger gas-phase ion size
[1] = ion type: [M+Na], ion source: ESI, ion mode: Positive
[2] = ion type: [M-H], ion source: ESI, ion mode: Negative
[3] = ion type: [M+H], ion source: ESI, ion mode: Positive
[4] = ion type: [M+H], ion source: APCI, ion mode: Positive
[5] = ion type: [M+], ion source: APCI, ion mode: Positive
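Further: chemical standards at 10 µM analysed by drift tube IMS-QTOF MS in about 3.95 torr nitrogen, mean of duplicate injections differing ≤1%, mass error below 10 ppm.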

SMILES | collision cross section in nitrogen [1] [Å²] | collision cross section in nitrogen [2] [Å²] | collision cross section in nitrogen [3] [Å²] | collision cross section in nitrogen [4] [Å²] | collision cross section in nitrogen [5] [Å²]
CCOC(=O)CC(SP(=O)(OC)OC)C(=O)OCC (stereo not drawn) [Malaoxon] | 165.7 |  |  |  | 
O=C(Oc1ccccc1)c1ccccc1O [Phenyl salicylate] |  | 145.7 |  |  | 
CCCCOP(=O)(O)OCCCC [Phosphoric acid, dibutyl ester] |  | 151.3 |  |  | 
CCCCCCCC/C=C\CCCCCCCCN [(Z)-9-Octadecenylamine] |  |  | 180.2 |  | 
CC1(C)[C@H](/C=C2\CCSC2=O)[C@@H]1C(=O)OCc1coc(Cc2ccccc2)c1 [Kadethrin] | 192.5 |  |  |  | 
Oc1c(I)cc(I)c2cccnc12 [Iodoquinol] |  | 147.3 | 146.4 |  | 
CCCCC(CC)COS(=O)(=O)O (stereo not drawn) [Sodium ethasulfate hydrate] |  | 150.1 |  |  | 
Cc1cc(-c2ccc(N)c(C)c2)ccc1N [3,3'-Dimethylbenzidine] |  |  | 166.5 | 166.1 | 150.8
CCCCOC(=O)CC(CC(=O)OCCCC)(OC(C)=O)C(=O)OCCCC [Acetyl tributyl citrate] | 207 |  |  |  | 
CC(C)(C)c1ccc(O)c(O)c1 [4-tert-Butylcatechol] |  | 139.3 |  |  | 
Nc1ccc2c(S(=O)(=O)O)cccc2c1S(=O)(=O)O [1,5-Naphthalenedisulfonic acid, 2-amino-, sodium salt (1:1)] |  | 159.4 |  |  | 
CCCCC(CC)COC(=O)CCCCC(=O)OCC(CC)CCCC (stereo not drawn) [Bis(2-ethylhexyl)hexanedioate] | 216.5 |  |  |  | 
Cc1cc(C)cc(OCC2CNC(=O)O2)c1 (stereo not drawn) [Metaxalone] | 152.3 |  |  |  | 
CCOCN(C(=O)CS(=O)(=O)O)c1c(C)cccc1CC [Acetochlor ESA] |  | 172.3 |  |  | 
CC1=C(C(=O)Nc2ccccc2)S(=O)(=O)CCO1 [Oxycarboxin] | 168.9 |  |  |  | 
CCCCCCCCCCCC(=O)N(C)CC(=O)O [N-Dodecanoyl-N-methylglycine] | 175.7 | 170.1 |  |  | 
CCN(Cc1cccc(S(=O)(=O)O)c1)c1ccc(C(=C2C=CC(=[N+](CC)Cc3cccc(S(=O)(=O)O)c3)C=C2)c2ccc(O)cc2S(=O)(=O)[O-])cc1 [FD&C Green No. 3] | 260.8 | 260.3 | 259 |  | 
Cn1c([N+](=O)[O-])cnc1COC(N)=O [Ronidazole] | 143.1 |  |  |  | 
N=C(NCCCCCCNC(=N)NC(=N)Nc1ccc(Cl)cc1)NC(=N)Nc1ccc(Cl)cc1 [Chlorhexidine diacetate] | 228.3 | 233.6 | 224.1 | 222.8 | 
CCc1c(C(=O)O)c(=O)cnn1-c1ccc(Cl)cc1 [Clofencet-potassium] | 175.3 | 160.5 | 159 | 159.2 | 
CCc1nn(C2CCCCC2)c2cc([C@]3(C#N)CC[C@@H](C(=O)O)CC3)ccc12 |  | 213.8 | 205.4 | 206 | 
CC(=O)[C@H]1[C@H](C#N)C[C@H]2[C@@H]3CC=C4C[C@@H](O)CC[C@]4(C)[C@H]3CC[C@@]21C [Pregnenolone carbonitrile] |  | 189.5 |  |  | 

SMILES | collision cross section in nitrogen [1] [Å²] | collision cross section in nitrogen [2] [Å²] | collision cross section in nitrogen [3] [Å²] | collision cross section in nitrogen [4] [Å²] | collision cross section in nitrogen [5] [Å²]
CN(C)P(=O)(N(C)C)N(C)C [Hexamethylphosphoramide] | 152.8 |  | 135.3 | 134.4 | 
COc1ccc(O)cc1 [4-Methoxyphenol] |  |  |  |  | 123.7
COC(=O)[C@@H](C)Oc1ccc(Oc2ncc(C(F)(F)F)cc2Cl)cc1 [Haloxyfop-P-methyl] | 186.4 |  | 185.1 |  | 
Cc1ccc(C)c(O)c1C [2,3,6-Trimethylphenol] |  | 130.9 |  |  | 
CO/C=C(/C(=O)OC)c1ccccc1Oc1cc(Oc2ccccc2C#N)ncn1 [Azoxystrobin] | 199 |  | 195 | 196.5 | 
Oc1cccc(I)c1 [3-Iodophenol] |  | 122.5 |  |  | 
O=C(O)c1cc(Cl)cc(Cl)c1O [3,5-Dichlorosalicylic acid] |  | 130.7 |  |  | 
C=C1C[C@]23C[C@@]1(O)CC[C@H]2[C@@]12C=C[C@H](O)[C@@](C)(C(=O)O1)[C@H]2[C@@H]3C(=O)O [Gibberellic acid] |  | 176.4 |  |  | 
CCC(Cc1c(I)cc(I)c(N)c1I)C(=O)O (stereo not drawn) [Iopanoic acid] |  |  |  |  | 171.5
CCCCCCOC(=O)CC [Hexyl propanoate] |  | 146.3 |  |  | 
CC(C)(C)c1cc(C(C)(C)C)c(O)c(C(C)(C)C)c1 [2,4,6-Tris(tert-butyl)phenol] |  | 173.2 |  |  | 
CC(=O)C(C)=CC1C(C)=CCCC1(C)C (stereo not drawn) [Isomethyl-alpha-ionone] |  | 155 |  |  | 
CC(C)N1C(=O)N(c2ccccc2)CSC1=NC(C)(C)C [Buprofezin] | 188 |  | 173.9 | 173.6 | 
c1ccc2ncccc2c1 [Quinoline] |  |  |  | 120.8 | 
COc1cc(C=O)ccc1O [4-Hydroxy-3-methoxybenzaldehyde] |  | 128.1 |  |  | 
Cc1oc(C)c(C(=O)Nc2ccccc2)c1C [Methfuroxam] |  |  | 153.3 | 152.5 | 
c1ccc(C(O[C@@H]2CCCN(CCc3ccc4c(c3)OCO4)C2)c2ccccc2)cc1 [Zamifenacin] | 195.9 |  | 192.4 | 192.3 | 
COc1cc2c(cc1OC)[C@@]13CCN4CC5=CCO[C@H]6CC(=O)N2[C@H]1[C@H]6[C@H]5C[C@H]43 [Brucine] | 204.6 |  | 194.1 | 191.3 | 
Clc1ccccc1CN1CCc2sccc2C1 [Ticlopidine hydrochloride] |  |  | 156.8 | 156.4 | 
c1ccc2c(c1)ccc1ncccc12 [Benzo(f)quinoline] |  |  | 134.8 | 134.7 | 130.3
CC(C)NCC(O)c1ccc(O)c(O)c1 (stereo not drawn) [Isoproterenol hydrochloride] |  | 151.9 | 151 |  | 
Cc1ccc(O)cn1 [6-Methyl-3-hydroxypyridine] |  | 120.4 | 119.4 | 118.1 | 

SMILES | collision cross section in nitrogen [1] [Å²] | collision cross section in nitrogen [2] [Å²] | collision cross section in nitrogen [3] [Å²] | collision cross section in nitrogen [4] [Å²] | collision cross section in nitrogen [5] [Å²]
O=Cc1ccccc1S(=O)(=O)O [Sodium 2-formylbenzenesulfonate] |  | 130.9 |  |  | 
CCCCCCCCCCCC(=O)OCC(O)CO (stereo not drawn) [1-Monolaurin] | 176.3 |  |  |  | 
COc1cc(C)cc(O)c1 [3-Methoxy-5-methylphenol] |  | 130.1 |  |  | 
Nc1cc([N+](=O)[O-])cc(Cl)c1O [2-Amino-6-chloro-4-nitrophenol] |  | 130.1 |  |  | 
COC(=O)CCCCCCCC(=O)OC [Dimethyl nonanedioate] | 155.6 |  |  |  | 
CC1=NNC(=O)C1 [3-Methyl-5-pyrazolone] |  | 117.9 | 119.1 |  | 
CNC(=N[N+](=O)[O-])NCC1CCOC1 (stereo not drawn) [1-Methyl-2-nitro-3-((tetrahydrofuran-3-yl)methyl)guanidine] | 150.6 | 148.7 |  |  | 
O=C(Nc1ccccc1-c1ccc(Cl)cc1)c1cccnc1Cl [Boscalid] |  | 177.1 | 175.5 |  | 
CC[C@H](NC(=O)c1cc(F)ccc1NS(=O)(=O)c1cccc2cccnc12)c1ccccc1 [AVE3295] | 205.8 | 203 | 197.4 | 198 | 
CCC(C)N(C)C(=O)c1cc2ccccc2c(-c2ccccc2Cl)n1 (stereo not drawn) | 192.8 |  | 185.9 | 186.6 | 
Cc1cc(CCN2CCN(c3nsc4ccccc34)CC2)cc2c1NC(=O)CC2(C)C | 205.3 | 209.3 | 202.4 | 202.2 | 
CCCCC(CC)COC(=O)CCCCCCCCC(=O)OCC(CC)CCCC (stereo not drawn) [Bis(2-ethylhexyl) decanedioate] | 224.2 |  |  |  | 
CCCCC(CC)C(=O)O (stereo not drawn) [Barium bis(2-ethylhexanoate)] |  | 137.4 |  |  | 
OCCOCCN1CCN(C(c2ccccc2)c2ccc(Cl)cc2)CC1 (stereo not drawn) [Hydroxyzine hydrochloride] | 195.7 |  | 197.2 | 197.7 | 
O=P(OCCCl)(OCCCl)OCCCl [Tris(2-chloroethyl) phosphate] | 160.2 |  |  |  | 
NC(=O)c1ccc(N)cc1 [4-Aminobenzamide] |  |  | 126.5 | 126.4 | 
CC1(C)NC(=O)N(c2ccc([N+](=O)[O-])c(C(F)(F)F)c2)C1=O [Nilutamide] |  | 162.8 |  |  | 
COC(=O)NS(=O)(=O)c1ccc(N)cc1 [Asulam] |  | 150.4 |  |  | 
CCN(CC)c1ccc2c(C)cc(=O)oc2c1 [7-Diethylamino-4-methylcoumarin] | 176.4 | 159.4 | 152.6 | 152.6 | 
COc1nn(C(=O)NS(=O)(=O)c2ccccc2OC(F)(F)F)c(=O)n1C [Flucarbazone-sodium] |  | 182.9 |  |  | 

Source: the supplement of paper PMC12317010
